Laboratory results taken from US11638716B2, “Compounds, compositions, and methods for the treatment of disease” (F-star Therapeutics, Inc., priority 2017, dated 2023).

Experiments:
[1] = tested on: ISGs/type I IFN response; test: ISGs/type I IFN response in normal Balb/C mice after intravenous dosing; assay type: in vivo, mouse; settings: intravenously 9 mg/kg
[2] = target: T1, STING CTD (Homo sapiens, UniProt Q86WV6, H232R); test: Thermal shift assay with STING CTD; assay type: binding; settings: 0.1 mg/mL STING CTD, compound 2 mM to 0.05 uM
T1 construct: Thermal shift assay was conducted with 0.1 mg/mL of STING CTD
Experimental: Fluorescence as a function of temperature was recorded using a Real Time PCR machine (Thermo Fisher). The temperature gradient was performed in the range of 25-80° C. with a ramp of 0.2° C. over the course of 60 minutes. Data was analyzed with the Thermal Shift Software (Thermo Fisher) and DSF analysis. The Derivative model was used to fit the fluorescence data to obtain the midpoint temperature for the thermal protein unfolding transition (Tm) using the curve-fitting software Prism.

[3] = target: T2, human wtSTING-CTD (with SUMO tag) (Homo sapiens, UniProt Q86WV6, H232R); test: Isothermal calorimetry against human wtSTING-CTD; assay type: binding; settings: 25° C., 1.5 mM compound titrated against 132.5 μM protein
T2 construct: human wtSTING-CTD (with SUMO tag)
Experimental: Isothermal Calorimetry was carried out on a MicroCal Itc200 at 25° C.

[4] = tested on: RAW-Lucia-ISG-STING KO cells; test: IRF-type I IFN secreted luciferase in RAW-Lucia-ISG-STING KO cells; assay type: cell-based; settings: compound alone, 19 hours
Experimental: FIG. 4 depicts RAW-Lucia-ISG-WT and RAW-Lucia-ISG-STING KO cells were stimulated with compound 2 or compound 4, alone for 19 hours. Activity of secreted luciferase (IRF-type I IFN activity) in cell culture supernatant was measured using Invivogen's Quanti-luc. Data is shown as fold induction over DMSO treated cells (mean±standard deviation of triplicate wells per stimulant). EC50 values were calculated using XLfit.

[5] = tested on: THP1-STING KO cells; test: IRF activity in THP1-STING KO cells; assay type: cell-based; settings: compound alone, 20 hours
[6] = target: R232H variant of hSTING (Homo sapiens, UniProt Q86WV6); test: IRF/NF-kB reporter cells, STING R232H variant; assay type: cell-based; settings: 20 hours
Experimental: (§1) FIG. 27 depicts cells stably expressing both or either one of the reporters to measure IRF and NF-kB activity were treated with a range of concentrations of compound 4 or DMSO control for 20 hours. IRF activity was assessed using QUANTI-luc to measure levels of Lucia and NF-kB activity was determined by measure SEAP levels at 620-655 nm. % induction was calculated from fold change in luminescence/absorbance compared to DMSO treated sample. EC50 values are generated by curve fit in Xlfit.
(§2) Cells grown in complete media were treated with various concentrations of a compound of the disclosure or DMSO control. Dual cells carry both secreted embryonic alkaline phosphatase (SEAP) reporter gene under the control of an IFN-β minimal promoter fused to five copies of the NF-kB consensus transcriptional response element to measure NF-kB activity and Lucia reporter gene under the control of an ISG54 minimal promoter to measure IRF activity. After 20 h incubation, IRF activity was assessed using QUANTI-luc to measure levels of Lucia and NF-kB activity was determined by measure SEAP levels at 620-655 nm. % induction was calculated from fold change in luminescence/absorbance compared to DMSO treated sample. EC50 values are generated by curve fit in Xlfit.

[7] = tested on: MYD88 knock out cells; test: IRF/NF-kB reporter activity in MYD88 knock out cells; assay type: cell-based; settings: 20 hours
Experimental: as §1, §2

[8] = tested on: IRF; test: IRF signaling reporter (Lucia), compound 4 and diastereomers; assay type: cell-based; settings: 20 hours
Experimental: (§3) Cells were treated with various concentrations of compound 3 and two of its diastereomers (4-A and 4-B), or DMSO control for 20 hours. Cells stably expressed one or both of the reporters used to measure IRF activity. IRF activity was assessed using QUANTI-luc to measure levels of Lucia. % induction was calculated from fold change in luminescence/absorbance compared to DMSO treated sample.
as §3, with “4” for “3”

[9] = tested on: NF-kB; test: NF-kB signaling reporter (SEAP), compound 4 and diastereomers; assay type: cell-based; settings: FIG. 34B, 20 hours
Experimental: Cells were treated with various concentrations of compound 4 and two of its diastereomers (4-A and 4-B), or DMSO control for 20 hours. Cells stably expressed one or both of the reporters used to measure NF-kB activity. NF-kB activity was determined by measure SEAP levels at 620-655 nm. % induction was calculated from fold change in luminescence/absorbance compared to DMSO treated sample.

R232H variant of hSTING, sequence (Q86WV6 whole entry, stated change not applied): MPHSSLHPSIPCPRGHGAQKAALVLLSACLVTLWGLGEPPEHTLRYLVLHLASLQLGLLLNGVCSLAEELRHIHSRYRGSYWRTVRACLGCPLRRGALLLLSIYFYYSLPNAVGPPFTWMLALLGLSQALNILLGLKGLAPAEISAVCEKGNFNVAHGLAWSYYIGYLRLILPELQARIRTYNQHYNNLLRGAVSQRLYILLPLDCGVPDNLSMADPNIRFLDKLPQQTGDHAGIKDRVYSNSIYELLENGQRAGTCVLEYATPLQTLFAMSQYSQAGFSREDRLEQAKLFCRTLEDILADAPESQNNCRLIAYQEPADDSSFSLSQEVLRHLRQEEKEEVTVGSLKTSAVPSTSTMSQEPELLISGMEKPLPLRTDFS
T1 sequence (Q86WV6 135-379 H232R): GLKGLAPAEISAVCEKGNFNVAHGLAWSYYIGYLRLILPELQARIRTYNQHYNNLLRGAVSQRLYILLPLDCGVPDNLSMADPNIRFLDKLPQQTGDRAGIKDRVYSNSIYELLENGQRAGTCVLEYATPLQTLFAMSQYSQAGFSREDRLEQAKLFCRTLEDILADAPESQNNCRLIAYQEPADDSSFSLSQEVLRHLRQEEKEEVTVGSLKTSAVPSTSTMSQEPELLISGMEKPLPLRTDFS
T2 sequence (Q86WV6 135-379 H232R): as above

Compound	upregulation of ISGs/type I IFN response [1]	binding to STING (thermal shift) [2]	binding to STING (isothermal calorimetry) [3]	IRF activity in STING KO cells [4]	IRF activity in THP1-STING KO cells [5]	activity against R232H variant of hSTING [6]	activity in MYD88 knock out cells [7]	IRF signaling induction ([8]; FIG. 34A)	IRF signaling induction ([8]; FIG. 34C)	NF-kB signaling induction [9]
N.N.Nc1ncnc2c1ncn2[C@@H]1O[C@@H]2COP(=O)(S)O[C@@H]3[C@H](F)[C@@H](COP(=O)(O)O[C@H]2[C@H]1F)O[C@H]3n1ccc(=O)[nH]c1=O (stereo partly shown) [Compound 3]	strongly induced upregulation	bind to STING with high affinity	bind to STING with high affinity	–	–	–	–	–	–	–
CCCCCCCCCCOc1ccc(C(=O)Oc2ccc(CSP3(=O)OC[C@H]4O[C@@H](n5cnc6c(N)ncnc65)[C@H](F)[C@@H]4OP(=O)(O)OC[C@H]4O[C@@H](n5ccc(=O)[nH]c5=O)[C@H](O3)[C@@H]4F)cc2)cc1 (stereo partly shown) [Compound 4]	–	–	–	Neither compound induced IRF activity	did not induced IRF activity	possess activity	possess activity	efficacious in inducing IRF signaling	efficacious in inducing IRF signaling	efficacious in inducing NF-kB signaling
